The source of these data is patent US11993598B2, “Compounds for inhibiting EGFR kinase, preparation methods and uses thereof” (WIGEN BIOMEDICINE TECHNOLOGY (SHANGHAI) CO., LTD., priority 2019, dated 2024).

Common to all, as to experiment: Cell proliferation assay (MTT)
What all share (assay type): cell-based

The subject of test [1] is A431 (wild type EGFR, skin cancer). As to conditions: Homo sapiens, A-431, 72 h, three days. The procedure: (§1) A431 cells, H1975 and Ba/F3 cells expressing various mutant EGFR were harvested from exponential phase cultures and seeded in 96-well plates at a cell density of 3000 per well for A431 and H1975, and 10000 per well for Ba/F3 cells. After overnight attachment, compounds were 3-fold serially diluted and applied to cells at 30 μM, 10 μM, 3 μM, 1 μM, 0.3 μM, […], 0.03 μM and 0.01 μM with triplicates, and incubated for three days. 20 μL of 5 mg/mL MTT was added afterwards followed by the further addition of 50 μL 10% SDS together with 5% isobutyl alcohol in 0.01 mol/L HCl. The plates were incubated overnight. Absorbance (A) at a wavelength of 570 nm was quantified. Percentage of inhibition was used for the calculation of IC50 based on the bliss method.

Test [2] has as its target Ba/F3_EGFR D770_N771insSVD (Homo sapiens, UniProt P00533, DUP768-770, cells depend on it). As to conditions: three days, read-out: Ba/F3_EGFR D770_N771insSVD IC50. The procedure: as §1
For test [3], the target named is Ba/F3_EGFR V769_D770insASV (Homo sapiens, UniProt P00533, DUP767-769, cells depend on it). As to conditions: three days, read-out: Ba/F3_EGFR V769_D770insASV IC50. The method, then:
as §1

For test [4], the system named is H1975 (EGFR L858R/T790M, NSCLC). As to conditions: Homo sapiens, NCI-H1975, 72 h, three days. The method, then: as §1

pIC50: −log10 of the molar value.

Sequence of Ba/F3_EGFR V769_D770insASV (P00533 with tags, fused parts or gaps DUP767-769): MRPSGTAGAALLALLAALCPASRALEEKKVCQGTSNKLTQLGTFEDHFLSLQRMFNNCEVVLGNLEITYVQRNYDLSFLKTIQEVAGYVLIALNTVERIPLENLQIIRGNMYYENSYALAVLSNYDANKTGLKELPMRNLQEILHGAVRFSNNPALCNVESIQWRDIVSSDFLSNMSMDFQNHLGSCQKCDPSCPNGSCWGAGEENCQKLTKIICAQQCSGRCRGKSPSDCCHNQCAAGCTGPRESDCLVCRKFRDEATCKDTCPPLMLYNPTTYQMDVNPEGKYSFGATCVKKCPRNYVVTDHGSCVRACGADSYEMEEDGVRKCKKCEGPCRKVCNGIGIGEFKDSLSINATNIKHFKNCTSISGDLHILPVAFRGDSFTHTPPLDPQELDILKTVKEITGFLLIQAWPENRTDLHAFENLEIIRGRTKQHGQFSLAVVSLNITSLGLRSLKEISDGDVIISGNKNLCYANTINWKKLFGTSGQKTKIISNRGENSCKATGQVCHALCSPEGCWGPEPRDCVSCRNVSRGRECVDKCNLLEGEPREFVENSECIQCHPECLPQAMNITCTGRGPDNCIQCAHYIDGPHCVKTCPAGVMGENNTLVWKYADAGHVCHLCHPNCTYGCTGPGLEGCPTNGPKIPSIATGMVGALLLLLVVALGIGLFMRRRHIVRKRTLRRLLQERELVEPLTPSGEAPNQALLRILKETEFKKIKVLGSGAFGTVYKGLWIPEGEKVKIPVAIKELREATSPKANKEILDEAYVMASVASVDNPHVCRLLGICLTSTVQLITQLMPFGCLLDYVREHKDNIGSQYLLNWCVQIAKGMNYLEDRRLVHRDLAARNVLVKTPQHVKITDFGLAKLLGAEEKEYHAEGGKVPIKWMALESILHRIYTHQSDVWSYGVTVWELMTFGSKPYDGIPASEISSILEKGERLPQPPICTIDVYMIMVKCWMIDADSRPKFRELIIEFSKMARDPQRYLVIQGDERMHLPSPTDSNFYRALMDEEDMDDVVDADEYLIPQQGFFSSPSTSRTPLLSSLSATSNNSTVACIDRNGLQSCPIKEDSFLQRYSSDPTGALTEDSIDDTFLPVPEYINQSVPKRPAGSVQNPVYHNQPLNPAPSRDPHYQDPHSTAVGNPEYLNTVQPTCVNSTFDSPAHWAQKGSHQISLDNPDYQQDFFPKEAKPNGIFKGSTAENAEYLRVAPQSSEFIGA
Sequence of Ba/F3_EGFR D770_N771insSVD (P00533 with tags, fused parts or gaps DUP768-770): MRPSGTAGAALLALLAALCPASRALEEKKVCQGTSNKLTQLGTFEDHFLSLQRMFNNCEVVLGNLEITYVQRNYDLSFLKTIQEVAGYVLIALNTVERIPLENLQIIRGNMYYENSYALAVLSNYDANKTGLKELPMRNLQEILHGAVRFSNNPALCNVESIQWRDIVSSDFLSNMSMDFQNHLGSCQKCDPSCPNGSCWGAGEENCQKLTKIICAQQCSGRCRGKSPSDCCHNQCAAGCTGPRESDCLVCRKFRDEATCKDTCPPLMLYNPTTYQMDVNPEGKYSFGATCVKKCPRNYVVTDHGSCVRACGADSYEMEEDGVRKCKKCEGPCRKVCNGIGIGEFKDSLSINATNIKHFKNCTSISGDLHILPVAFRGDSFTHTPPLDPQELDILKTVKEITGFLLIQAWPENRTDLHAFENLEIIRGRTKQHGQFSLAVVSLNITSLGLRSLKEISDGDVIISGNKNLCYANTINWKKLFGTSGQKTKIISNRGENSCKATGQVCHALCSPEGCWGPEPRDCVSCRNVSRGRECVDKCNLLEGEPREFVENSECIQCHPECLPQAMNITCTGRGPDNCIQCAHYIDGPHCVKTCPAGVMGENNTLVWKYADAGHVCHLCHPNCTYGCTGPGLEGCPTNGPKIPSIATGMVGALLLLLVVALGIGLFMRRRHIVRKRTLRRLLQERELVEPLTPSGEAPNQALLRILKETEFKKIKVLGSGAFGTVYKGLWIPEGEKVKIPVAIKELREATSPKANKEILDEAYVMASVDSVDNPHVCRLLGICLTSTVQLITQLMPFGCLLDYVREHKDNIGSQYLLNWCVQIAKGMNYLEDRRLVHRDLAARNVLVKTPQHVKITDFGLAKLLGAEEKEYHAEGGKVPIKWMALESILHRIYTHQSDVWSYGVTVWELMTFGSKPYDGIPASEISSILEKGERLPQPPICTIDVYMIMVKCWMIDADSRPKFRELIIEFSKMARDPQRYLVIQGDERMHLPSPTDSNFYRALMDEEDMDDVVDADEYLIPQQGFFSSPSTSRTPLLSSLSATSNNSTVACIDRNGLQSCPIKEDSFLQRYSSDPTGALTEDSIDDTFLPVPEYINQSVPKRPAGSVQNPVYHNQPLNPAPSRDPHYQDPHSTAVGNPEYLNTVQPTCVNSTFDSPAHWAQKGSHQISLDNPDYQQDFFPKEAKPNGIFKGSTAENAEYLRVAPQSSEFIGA

What is called pIC50 is the negative decadic logarithm of the IC50, by convention in mol/L. Read a low pIC50 as a large IC50. Consider `[2H]C([2H])([2H])N(C)CCN(C)c1cc(OC)c(Nc2nccc(-n3c(=O)n4c5c(cc(F)cc53)CCC4)n2)cc1NC(=O)C=C` [Compound 28, N-(5-((4-(8-fluoro-2-oxo-5,6-dihydro-4H-imidazo[4,5,1-ij]quinolin-1(2H)-yl)pyrimidin-2-yl)amino)-4-methoxy-2-(methyl(2-(methyl(methyl-d3)amino)ethyl)amino)phenyl) acrylamide], for which the pIC50 in test [1] was 6.59; in test [4], 7.49. In addition, the GI50 in test [2] turned out to be 5.13 nM; in test [3] it was 14.3 nM.
As for `C=CC(=O)Nc1cc(Nc2nccc(-n3c(=O)n4c5c(cc(F)cc53)CCC4)n2)c(OCC(F)(F)F)nc1N(C)CCN(C)C` [Compound 5, N-(2-((2-(dimethylamino)ethyl)(methyl)amino)-5-((4-(8-fluoro-2-oxo-5,6-dihydro-4H-imidazo[4,5,1-ij]quinolin-1(2H)-yl)pyrimidin-2-yl)amino)-6-(2,2,2-trifluoroethoxy)pyridin-3-yl)acrylamide], the pIC50 in test [1] was 6.81; in test [4] it was 7.80. The GI50 is 5.07 nM in test [2] and 14.9 nM in test [3].
In the same order, the values of `[2H]C([2H])([2H])N(CCN(C)c1cc(OC)c(Nc2nccc(-n3c(=O)n4c5c(cc(F)cc53)CCC4)n2)cc1NC(=O)C=C)C([2H])([2H])[2H]` [Compound 29, N-(2-((2-(bis(methyl-d3)amino)ethyl)(methyl)amino)-5-((4-(8-fluoro-2-oxo-5,6-dihydro-4H-imidazo[4,5,1-ij]quinolin-1(2H)-yl)pyrimidin-2-yl)amino)-4-methoxyphenyl)acrylamide] are 6.73, 7.68, 9.03 nM and 23.4 nM.
For `[2H]C([2H])([2H])Oc1cc(N(C)CCN(C)C)c(NC(=O)C=C)cc1Nc1nccc(-n2c(=O)n3c4c(cc(F)cc42)CCC3)n1` [Compound 42, N-(2-((2-(dimethylamino)ethyl)(methyl)amino)-5-((4-(8-fluoro-2-oxo-5,6-dihydro-4H-imidazo[4,5,1-ij]quinolin-1(2H)-yl)pyrimidin-2-yl)amino)-4-(methoxy-d3)phenyl)acrylamide] the same measures were 6.52, 7.83, 5.61 nM and 13.9 nM.
In the same order, the values of `C=CC(=O)Nc1cc(Nc2nccc(-n3c(=O)n4c5c(cc(F)cc53)CCC4)n2)c(OC)cc1N(C)CCN1CCC1` [Compound 25, N-(2-((2-(azetidin-1-yl)ethyl)(methyl)amino)-5-((4-(8-fluoro-2-oxo-5,6-dihydro-4H-imidazo[4,5,1-ij]quinolin-1(2H)-yl)pyrimidin-2-yl)amino)-4-methoxyphenyl)acrylamide] are 6.41, 7.59, 12.4 nM and 23.4 nM.
Regarding `C=CC(=O)Nc1cc(Nc2nccc(-n3c(=O)n4c5c(cc(F)cc53)CCC4)n2)c(OC)nc1N(C)CCN(C)C` [Compound 3, N-(2-((2-(dimethylamino)ethyl)(methyl)amino)-5-((4-(8-fluoro-2-oxo-5,6-dihydro-4H-imidazo[4,5,1-ij]quinolin-1(2H)-yl)pyrimidin-2-yl)amino)-6-methoxypyridin-3-yl)acrylamide], the figures for the pIC50 in test [1] and in test [4] were 6.41 and 7.80, respectively. In addition, the results for the GI50 in test [2] and in test [3] were 3.18 nM and 13.9 nM, respectively.
As to `C=CC(=O)Nc1cc(Nc2nccc(-c3cn(C)c4ccccc34)n2)c(OC)cc1N(C)CCN(C)C` [AZD9291, reference compound], the pIC50 in test [1] was […].
